Key:
Assay type in all cases: cell-based, human
bone marrow organoids = assay: TGFβ-induced fibrosis of bone marrow organoids (immunofluorescence, qRT PCR); conditions: for TGFβ-induced collagen deposition / TGFβ-induced αSMA expression: bone marrow organoids stimulated with TGFβ, N=4 and 3 respectively, Kruskal-Wallis with multiple comparisons
Excerpt: FIG. 7: Treatment of organoids with TGFβ induced fibrosis of the organoids, modelling bone marrow fibrosis seen in patients. […] Increase of signal in these images is indicative of treatment inducing classic markers of fibrosis. […] Finally, we confirmed the utility of this model to screen for potential inhibitors of bone marrow fibrosis. […] (N=4 and 3 respectively, significance testing with Kruskal-Wallis with multiple comparisons).
To model myelofibrosis (MF), we treated bone marrow organoids with Transforming Growth Factor β (TGFβ, Peprotech) at various concentrations for 72 hours. Treated organoids were maintained in this media before collection via pasteurette and fixation for immunofluorescence (whole organoids or embedded sections), or centrifugation for RNA extraction and subsequent quantitative Real Time Polymerase Chain Reaction (qRT PCR assessment of changes in gene expression). RNA extraction was performed using the Qiagen RNAEasy micro kit to the manufacturer's instructions.
qRT-PCR was performed on an Applied Biosystems 7500 Fast Real Time PCR System. Primers were obtained from Integrated DNA Technologies (IDT) as pre-validated PrimeTime qPCR primers. Reactions were prepared from lug of isolated RNA converted to cDNA with the High Capacity cDNA Reverse Transcription Kit (Applied Biosystems) under manufacturer recommended thermal cycling conditions. Synthesised cDNA was diluted 5-fold and stored at −20° C. until required.
A master mix was prepared for each qPCR reaction which was made up of 10 μl TaqMan® Universal Primer MasterMix (thermos), 1 μl of forward and reverse primers, and 2 μl of cDNA at a final concentration of 5 ng/mL. Calculations for fold changes in expression were performed using the ΔΔCT method, with human GAPDH used as a housekeeping gene, and undifferentiated iPSC used as controls for expression levels.
Immunofluorescence was performed using a Zeiss LSM880 confocal microscope (25×0.8 LD LCI plan apo 0.8 dual immersion objective). Samples were prepared first by fixation in 10% formalin, before 3×5 min successive washes with PBS. Samples were then blocked overnight in a detergent blocking solution comprised of 2% goat serum (Thermo), 1% Bovine Serum Albumin (BSA) in 50 mL of PBS. 250 μl of Triton X100 and Tween-20 (Sigma) were added, as well as 500 μl sodium deoxycholate (Sigma) to permeabilise samples and encourage antibody preparation. Primary antibody incubations were performed overnight at 4° C., before 4×5-minute successive washes in PBS. Samples were then incubated overnight once more at 4° C. in secondary antibody mixes: DAPI for nuclear labelling, Alexa-488, Alxea-568, and Alexa-647 (Thermo) depending on the species mix of antibodies present.

MF-patient organoids = assay: Bone marrow organoids engrafted with CD34+ cells from patients with myelofibrosis, screen of potential therapies (immunofluorescence of paraffin embedded sections); conditions: organoids seeded with MF patient cells for 14 days, treatment at day 7 post engraftment, 0.1 and 1 uM, vs DMSO treated
Protocol: FIG. 12: Organoids engrafted with CD34^+ cells from patients with myelofibrosis can be used to screen potential therapies in a patient specific approach. Bone marrow organoids were seeded with cells from patients with myelofibrosis for 14 days in total, with pharmacological interventions staged at day 7 post engraftment. […] Samples were also treated with the inhibitor SB431542, the BET bromodomain inhibitor JQ1, and the current clinical treatment for myelofibrosis ruxolitinib (at 0.1 and 1 uM respectively). […] (B) Representative immunofluorescence imaging of paraffin embedded sections.
Cells were isolated from cryopreserved peripheral blood or bone marrow mononuclear cells and stained with CellVue Claret Far Red Fluorescent Cell Linker Mini Kit for General Membrane Labeling (Sigma Aldrich, Cat #MINCLARET-1KT) following the instructions provided by the manufacturer. Organoids were seeded with 5000 cells per wells and cultured for 8-14 days in StemPro. On collection day, organoids were fixed for imaging or digested for assessment by flow cytometry or RNA extraction and qRT PCR.
Sections were blocked using 2% Goat Serum (Thermo Fisher Scientific, Cat #31872) 1% Bovine Serum Albumin (BSA) (Sigma, Cat #A9418) prior to primary antibody labelling with antibody diluted in 1% BSA, sequential PBS washes, and finally secondary labelling with AlexaFluor conjugates. […]

organoid endothelium = assay: Addition of VEGFC to the organoid growth factor cocktail, specialisation of organoid endothelium
Excerpt: FIG. 4: Addition of VEGFC induces specialisation of organoid endothelium to resemble bone marrow sinusoidal endothelium. The protocol thus far generated an organoid producing the key lineages of the central human bone marrow. However, bone marrow sinusoidal endothelium, is a highly specialised for regulating haematopoeitic cell behaviours.
FIG. 5: VEGFC induces development of CD34+ sinusoidal vascular network in organoids. […] Immunofluorescence images show significant staining of the vessels in the VEGFA+C treated sample when compared to VEGFA. (B) Close association of CD41+ megakaryocytes with vessels in the organoids. […] (C) CD41+ megakaryocytes are shown forming pro-platelet extensions in sections of BM organoids.
Once fully polymerised, 3D cultures were supplemented in Phase III sprouting medium which was comprised of APELII medium supplemented with 5% Foetal Bovine Serum (FBS), 5 U/mL Heparin Sulfate, 50 ng VEGFA, 10 ng each Interleukin 3 (IL3) and Interleukin 6 (IL6), as well as 25 ng each of SCF, Flt3, Thrombopoietin (TPO), Erythropoietin (EPO), Granulocyte Colony Stimulating Factor (G-CSF) (Stem Cell Technologies), FGF2, and BMP4. Cells were maintained in this media formulation until d12, with media changes every 72 hours. From d5 onwards, media changes are performed as 60:40 splits fresh: conditioned medium. […]

`NC(=O)c1ccc(-c2nc(-c3ccc4c(c3)OCO4)c(-c3ccccn3)[nH]2)cc1` [SB431542] was tested, and the TGFβ-induced collagen deposition (bone marrow organoids) was “significantly reduced” and the “TGFβ-induced αSMA expression” value (bone marrow organoids) was “significantly reduced”.

In the case of `Cc1sc2c(c1C)C(c1ccc(Cl)cc1)=N[C@@H](CC(=O)OC(C)(C)C)c1nnc(C)n1-2` [JQ1], the TGFβ-induced collagen deposition (bone marrow organoids) is reported as “significantly reduced”, the “TGFβ-induced αSMA expression” value (bone marrow organoids) is reported as “significantly reduced” and the “COL1A1 level, immunofluorescence” value (MF-patient organoids) is reported as “significant reductions”. For the same molecule, the “αSMA level, immunofluorescence” value (MF-patient organoids) was “significantly reduced”.

With TGFβ the “expression of α-smooth muscle actin (α-SMA) and collagen I (COL1A1), staining” value (bone marrow organoids; 72-hours of stimulation, compared to an untreated control) was “increase in the expression” and the “canonical fibrosis markers by qRT PCR” value (bone marrow organoids; various concentrations of TGFβ for 72 hours) was “dose dependent increase”.

B1: VEGFC: Vascular Endothelial Growth Factor C (Stem Cell Technologies), growth factor supplemented into medium (protein, UniProt P49767 112-227, looked up)
Vascular endothelial growth …: AHYNTEILKSIDNEWRKTQCMPREVCIDVGKEFGVATNTFFKPPCVSVYRCGGCCNSEGLQCMNTSTSYLSKTLFEITVPLSQGPKPVTISFANHTSCRCMSKLDVYRQVHSIIRR
With B1 the “CD34 expression of organoid vessels, immunofluorescence” value (organoid endothelium; VEGFA+C treated compared to VEGFA) was “induces vessels in the organoid that maintain the expression of CD34” and the “expression of adhesion molecules and hematopoietic regulatory factors (VEGFR3, VCAM1, VLA4, FGF4, CXCR4) in endothelial cells” value (organoid endothelium; VEGFC added to VEGFA, compared to VEGFA or VEGFC alone) was “improved the expression”.

Reference: patent US20250145961A1, “GENERATING BONE MARROW ORGANOIDS” (The University of Birmingham, priority 2022, published 2025)
